US20240002365A1, “PYRIDAZINE AND 1,2,4-TRIAZINE DERIVATIVES AS FGFR KINASE INHIBITORS” (BETA PHARMA, INC., priority 2020, published 2024)
Where “and” joins values, the source holds several entries; their conditions need not be identical. Identical values can stand only once. Like-named read-outs stand apart in the source and are kept apart here.

Experiments:
[1] = Pharmacokinetics assay in male CD-1 mice (plasma, LC-MS/MS, non-compartmental analysis); type: in vivo; settings: for MRT inf: read-out: MRT0-inf; for MRT last: read-out: MRT0-last;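 for Plasma concentration: plasma concentration of test compound at each sampling time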
Experimental: Pharmacokinetics Assay. A pharmacokinetics assay of Example 1 was performed by WuXi AppTec Inc., 6 Cedarbrook Drive, Cranbury, NJ 08512 USA. This study was conducted in 6 to 8-week-old male CD-1 mice (Hilltop Laboratories). Animals were group housed during acclimation and throughout the study. The animal room environment was controlled according to facility operation (temperature: 20 to 26° C.; relative humidity: 30 to 70%; lighting: 12 hour light/dark cycle). Temperature, relative humidity, and lighting were monitored by PointView Environmental Monitoring System. Animals were fed certified pellet diet (Certified Rodent Diet #5002, LabDiet). The diet lot number and specifications were recorded in study notebook and archived at WuXi AppTec. Water (reverse osmosis) was provided to the animals ad libitum. The animals were fasted overnight and food was returned 4 hours post-dose.
An appropriate amount of Example compound 1 above (N^1-(3,5-Dimethoxyphenyl)-N^2-isopropyl-N^1-(3-(1-methyl-1H-pyrazol-4-yl)cinnolin-6-yl)ethane-1,2-diamine) was accurately weighed and mixed with an appropriate volume of 20% hydroxypropyl-(3-cyclodextrin; 80% H2O (w/v) to give either a clear solution or uniform suspension (PO only). Blood samples of about 30-40 μL were collected from peripheral veins at pre-defined time points. into pre-chilled micro-tubes containing K2EDTA as anti-coagulant and kept on ice until centrifugation. The blood samples were centrifuged at 4° C., 3000g for 15 min within half an hour of collection. Plasma was collected into 96-well plate(s), quickly frozen on dry ice and stored at −70±10° C. until LC-MS/MS analysis. The LC-MS/MS analytical method is described as follows:
The pharmacokinetics of Example Compound 1 were analyzed using the Phoenix WinNonlin software (version 6.3) based on the non-compartmental analysis model and the results are shown below in FIGS. 1 and 2 and in Tables 1 and 2. M7, M8, M9, etc. refer to particular mouse subjects used in the study.

FGFR1 [2] = biological target: T1, FGFR1 (Homo sapiens (Human), UniProt P11362); experiment: RBC NanoBRET Assay for Target Engagement in HEK293 cells transfected with FGFR1-NanoLuc Fusion vector; type: cell-based; settings: 1 hour, tracer K5 1 μM
T1 sequence (P11362 22-822): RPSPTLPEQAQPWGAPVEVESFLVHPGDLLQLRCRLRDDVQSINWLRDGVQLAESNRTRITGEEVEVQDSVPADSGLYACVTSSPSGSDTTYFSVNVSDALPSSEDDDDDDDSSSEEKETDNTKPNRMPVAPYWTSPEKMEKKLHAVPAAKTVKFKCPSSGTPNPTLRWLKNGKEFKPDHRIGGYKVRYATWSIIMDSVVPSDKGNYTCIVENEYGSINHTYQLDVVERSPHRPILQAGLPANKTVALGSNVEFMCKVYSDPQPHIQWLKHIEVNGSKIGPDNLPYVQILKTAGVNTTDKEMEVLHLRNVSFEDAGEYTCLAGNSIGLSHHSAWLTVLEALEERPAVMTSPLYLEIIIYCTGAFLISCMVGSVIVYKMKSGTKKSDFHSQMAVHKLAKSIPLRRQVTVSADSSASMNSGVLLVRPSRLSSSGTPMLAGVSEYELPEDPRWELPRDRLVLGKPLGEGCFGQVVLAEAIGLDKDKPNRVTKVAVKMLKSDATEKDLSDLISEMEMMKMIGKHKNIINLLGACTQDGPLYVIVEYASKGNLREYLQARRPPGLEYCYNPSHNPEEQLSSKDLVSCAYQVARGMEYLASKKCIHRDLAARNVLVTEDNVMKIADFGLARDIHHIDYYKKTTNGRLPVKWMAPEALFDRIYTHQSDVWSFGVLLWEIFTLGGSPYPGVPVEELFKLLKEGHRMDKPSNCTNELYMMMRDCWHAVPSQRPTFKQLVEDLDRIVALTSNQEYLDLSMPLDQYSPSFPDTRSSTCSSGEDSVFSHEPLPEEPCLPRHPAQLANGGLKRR
Experimental: Cellular Assay. The RBC NanoBRET Assay for Target Engagement was performed by Reaction Biology Corporation, 1 Great Valley Parkway, Suite 2 Malvern, PA 19355, USA. The assay was conducted in HEK293 cells transiently transfected with FGFR1-NanoLuc Fusion vector. The HEK293 cells (ATCC) were transfected with 1 μg of FGFR1-NanoLuc Fusion vector in 384-well format and the transfected cells were subsequently treated with the test compounds (starting at 10 μM, 10-dose with 3-fold dilution) for 1 hour using CTx-0294885 as the reference standard and K5 (1 μM) was used as the tracer. FGFR1 target engagement was measured and the curve fits were performed only when % NanoBret signal at the highest concentration of compounds was less than 55%.

FGFR1 [3] = biological target: T1, FGFR1; experiment: RBC HotSpot Kinase Assay (33P-ATP filter-binding); type: biochemical; settings: 10 μM ATP
[4] = IV 1.00 mg/kg, mouse, individual mice M7-M9
[5] = PO 10.0 mg/kg, mouse, individual mice M10-M12
[6] = male, CD-1, mouse, plasma, iv, 1 mg/kg, IV 1.00 mg/kg, individual mice M7-M9
[7] = male, CD-1, mouse, plasma, iv, 1 mg/kg, IV 1.00 mg/kg, mean
[8] = male, CD-1, mouse, plasma, po, 10 mg/kg, PO 10.0 mg/kg, mean

Plasma concentration ([1]; IV 1.00 mg/kg, mouse, 299 s, individual mice M7-M9): 294 ng/mL and 444 ng/mL | Plasma concentration ([1]; IV 1.00 mg/kg, mouse, 0.250 h, individual mice M7-M9): 197 ng/mL and 143 ng/mL and 292 ng/mL | Plasma concentration ([1]; IV 1.00 mg/kg, mouse, 0.500 h, individual mice M7-M9): 80.8 ng/mL and 86.8 ng/mL and 206 ng/mL | Plasma concentration ([1]; IV 1.00 mg/kg, mouse, 1.00 h, individual mice M7-M9): 58.0 ng/mL and 29.3 ng/mL and 86.4 ng/mL | Plasma concentration ([1]; IV 1.00 mg/kg, mouse, 2.00 h, individual mice M7-M9): 15.2 ng/mL and 8.83 ng/mL and 17.9 ng/mL | Plasma concentration ([1]; IV 1.00 mg/kg, mouse, 4.00 h, individual mice M7-M9): 3.17 ng/mL and 3.64 ng/mL | Plasma concentration ([1]; IV 1.00 mg/kg, mouse, 8.00 h, individual mice M7-M9): 1.73 ng/mL and 1.42 ng/mL | Plasma concentration ([1]; IV 1.00 mg/kg, mouse, 24.0 h, individual mice M7-M9): 2.21 ng/mL and BQL | AUC0-inf [1, 4]: 197 ng·h/mL and 305 ng·h/mL | AUC0-last [1, 4]: 188 ng·h/mL and 303 ng·h/mL | AUCExtra [1, 4]: 1.15% and 4.42% and 0.637% | AUMCExtra [1, 4]: 10.6% and 26.9% and 6.89% | C0 [1, 4]: 421 ng/mL and 547 ng/mL | Cl [1, 4]: 84.8 mL/min/kg and 54.7 mL/min/kg | MRT0-inf [1, 4]: 2.80 h and 4.58 h and 0.866 h | MRT0-last [1, 4]: 2.53 h and 3.50 h and 0.812 h | T1/2 [1, 4]: 1.34 h and 2.72 h and 0.948 h | Tlast [1, 4]: 24.0 h (2×) and 8.00 h | Vdss [1, 4]: 12.2 L/kg and 23.3 L/kg and 2.84 L/kg | AUCExtra ([1]; IV 1.00 mg/kg, mouse, mean): 2.07% | AUMCExtra ([1]; IV 1.00 mg/kg, mouse, mean): 14.8% | Tlast ([1]; IV 1.00 mg/kg, mouse, mean): 18.7 h | Plasma concentration ([1]; PO 10.0 mg/kg, mouse, 0.167 h, individual mice M10-M12): 43.6 ng/mL and 46.8 ng/mL and 147 ng/mL | Plasma concentration ([1]; PO 10.0 mg/kg, mouse, 0.500 h, individual mice M10-M12): 71.0 ng/mL and 102 ng/mL and 269 ng/mL | Plasma concentration ([1]; PO 10.0 mg/kg, mouse, 1.00 h, individual mice M10-M12): 47.6 ng/mL and 51.9 ng/mL and 170 ng/mL | Plasma concentration ([1]; PO 10.0 mg/kg, mouse, 2.00 h, individual mice M10-M12): 14.1 ng/mL and 29.7 ng/mL and 89.5 ng/mL | Plasma concentration ([1]; PO 10.0 mg/kg, mouse, 4.00 h, individual mice M10-M12): 12.5 ng/mL and 9.57 ng/mL and 22.8 ng/mL | Plasma concentration ([1]; PO 10.0 mg/kg, mouse, 6.00 h, individual mice M10-M12): 20.7 ng/mL and 7.02 ng/mL and 4.44 ng/mL | Plasma concentration ([1]; PO 10.0 mg/kg, mouse, 8.00 h, individual mice M10-M12): 13.2 ng/mL and 4.84 ng/mL and 1.77 ng/mL | Plasma concentration ([1]; PO 10.0 mg/kg, mouse, 24.0 h, individual mice M10-M12): 7.49 ng/mL and 1.56 ng/mL and BQL | AUCExtra [1, 5]: 31.7% and 8.42% and 0.593% | AUMCExtra [1, 5]: 69.7% and 41.4% and 3.41% | Cmax [1, 5]: 71.0 ng/mL and 102 ng/mL and 269 ng/mL | MRT0-inf [1, 5]: 20.3 h and 7.47 h and 1.65 h | MRT0-last [1, 5]: 9.01 h and 4.78 h and 1.60 h | T1/2 [1, 5]: 14.3 h and 8.81 h and 1.03 h | Tlast [1, 5]: 24.0 h (2×) and 8.00 h | AUCExtra ([1]; PO 10.0 mg/kg, mouse, mean): 13.6% | AUMCExtra ([1]; PO 10.0 mg/kg, mouse, mean): 38.2% | Tlast ([1]; PO 10.0 mg/kg, mouse, mean): 18.7 h | concentration at 0.083 h ([1]; male, CD-1, mouse, plasma, iv, 1 mg/kg, IV 1.00 mg/kg, 299 s, individual mice M7-M9): 341 ng/mL | concentration at 0.083 h ([1]; male, CD-1, mouse, plasma, iv, 1 mg/kg, IV 1.00 mg/kg, 299 s, mean): 360 ng/mL | concentration at 0.25 h ([1]; male, CD-1, mouse, plasma, iv, 1 mg/kg, IV 1.00 mg/kg, 0.250 h, mean): 211 ng/mL | concentration at 0.5 h ([1]; male, CD-1, mouse, plasma, iv, 1 mg/kg, IV 1.00 mg/kg, 0.500 h, mean): 125 ng/mL | concentration at 1 h ([1]; male, CD-1, mouse, plasma, iv, 1 mg/kg, IV 1.00 mg/kg, 1.00 h, mean): 57.9 ng/mL | concentration at 2 h ([1]; male, CD-1, mouse, plasma, iv, 1 mg/kg, IV 1.00 mg/kg, 2.00 h, mean): 14 ng/mL | concentration at 4 h ([1]; male, CD-1, mouse, plasma, iv, 1 mg/kg, IV 1.00 mg/kg, 4.00 h, individual mice M7-M9): 3.72 ng/mL | concentration at 4 h ([1]; male, CD-1, mouse, plasma, iv, 1 mg/kg, IV 1.00 mg/kg, 4.00 h, mean): 3.51 ng/mL | concentration at 8 h ([1]; male, CD-1, mouse, plasma, iv, 1 mg/kg, IV 1.00 mg/kg, 8.00 h, individual mice M7-M9): 1.65 ng/mL | concentration at 8 h ([1]; male, CD-1, mouse, plasma, iv, 1 mg/kg, IV 1.00 mg/kg, 8.00 h, mean): 1.6 ng/mL | concentration at 24 h ([1]; male, CD-1, mouse, plasma, iv, 1 mg/kg, IV 1.00 mg/kg, 24.0 h, individual mice M7-M9): 1.36 ng/mL | concentration at 24 h ([1]; male, CD-1, mouse, plasma, iv, 1 mg/kg, IV 1.00 mg/kg, 24.0 h, mean): 1.79 ng/mL | AUC(0-t) [1, 6]: 226 ng·h/mL | clearance [1, 6]: 73 mL/min/kg | AUC0-inf ([1]; male, CD-1, mouse, plasma, iv, 1 mg/kg, IV 1.00 mg/kg, individual mice M7-M9, read-out: AUC0-inf): 228 ng·h/mL | C0 ([1]; male, CD-1, mouse, plasma, iv, 1 mg/kg, IV 1.00 mg/kg, individual mice M7-M9, read-out: C0): 448 ng/mL | AUC(0-t) [1, 7]: 239 ng·h/mL | clearance [1, 7]: 70.8 mL/min/kg | half-life [1, 7]: 1.67 h | AUC0-inf ([1]; male, CD-1, mouse, plasma, iv, 1 mg/kg, IV 1.00 mg/kg, mean, read-out: AUC0-inf): 243 ng·h/mL | C0 ([1]; male, CD-1, mouse, plasma, iv, 1 mg/kg, IV 1.00 mg/kg, mean, read-out: C0): 472 ng/mL | MRT inf [1, 7]: 2.75 h | MRT last [1, 7]: 2.28 h | Vd ([1]; male, CD-1, mouse, plasma, iv, 1 mg/kg, IV 1.00 mg/kg, mean, read-out: Vdss): 12.8 L/kg | concentration at 0.167 h ([1]; male, CD-1, mouse, plasma, po, 10 mg/kg, PO 10.0 mg/kg, 0.167 h, mean): 79.1 ng/mL | concentration at 0.5 h ([1]; male, CD-1, mouse, plasma, po, 10 mg/kg, PO 10.0 mg/kg, 0.500 h, mean): 147 ng/mL | concentration at 1 h ([1]; male, CD-1, mouse, plasma, po, 10 mg/kg, PO 10.0 mg/kg, 1.00 h, mean): 89.8 ng/mL | concentration at 2 h ([1]; male, CD-1, mouse, plasma, po, 10 mg/kg, PO 10.0 mg/kg, 2.00 h, mean): 44.4 ng/mL | concentration at 4 h ([1]; male, CD-1, mouse, plasma, po, 10 mg/kg, PO 10.0 mg/kg, 4.00 h, mean): 15 ng/mL | concentration at 6 h ([1]; male, CD-1, mouse, plasma, po, 10 mg/kg, PO 10.0 mg/kg, 6.00 h, mean): 10.7 ng/mL | concentration at 8 h ([1]; male, CD-1, mouse, plasma, po, 10 mg/kg, PO 10.0 mg/kg, 8.00 h, mean): 6.6 ng/mL | concentration at 24 h ([1]; male, CD-1, mouse, plasma, po, 10 mg/kg, PO 10.0 mg/kg, 24.0 h, mean): 4.53 ng/mL | AUC(0-t) [1, 8]: 330 ng·h/mL | half-life [1, 8]: 8.05 h | AUC0-inf ([1]; male, CD-1, mouse, plasma, po, 10 mg/kg, PO 10.0 mg/kg, mean, read-out: AUC0-inf): 389 ng·h/mL | Cmax ([1]; male, CD-1, mouse, plasma, po, 10 mg/kg, PO 10.0 mg/kg, mean, read-out: Cmax): 147 ng/mL | MRT inf [1, 8]: 9.81 h | MRT last [1, 8]: 5.13 h | bioavailability ([1]; male, CD-1, plasma, PO 10.0 mg/kg vs IV 1.00 mg/kg, mouse, calculated from AUC): 13.8% | Tmax ([1]; male, CD-1, plasma, PO 10.0 mg/kg, mouse, individual mice M10-M12): 0.5 h | IC50 (FGFR1 [2]): 9.5 nM | IC50 (FGFR1 [3]): 7.3 nM
Structure (SMILES): COc1cc(OC)cc(N(CCNC(C)C)c2ccc3nnc(-c4cnn(C)c4)cc3c2)c1 [Example 1, N^1-(3,5-Dimethoxyphenyl)-N^2-isopropyl-N^1-(3-(1-methyl-1H-pyrazol-4-yl)cinnolin-6-yl)ethane-1,2-diamine]
AUC0-inf [1, 5]: 488 ng·h/mL and 235 ng·h/mL and 443 ng·h/mL | AUC0-last [1, 5]: 333 ng·h/mL and 216 ng·h/mL and 441 ng·h/mL
